According to patent publication US20240226234A1, “WNT5A PEPTIDES FOR THE TREATMENT OF ACUTE M[…]” (W[…], priority 2021, published 2024):
No end group written: not given here. *: point of attachment. For = O=C*

How the values were obtained:
Format in all cases: cell-based, human
HL60 cells = test: ROS production by flow cytometry, HL60 cells; conditions: 72 h; for ROS production (MFI): HL60, 2D culture on HS5 stromal cells; for ROS production (mean fluorescence intensity): HL60, monoculture
Experimental: (§1) A panel of human myeloid leukemia cell lines (HL60, K562, KG1a, THP1 and U937) and HS-5 mesenchymal stromal cells lineage were cultured in Roswell Park Memorial Institute medium-1640 (RPMI; Sigma) containing 10% Fetal Bovine Serum (Gibco), glutamine (2 mM; Sigma), penicillin (100 μg/mL; Sigma), streptomycin (100 μg/mL; Sigma), and amphotericin B (0.25 μg/mL; Gibco). The cells were maintained in a humidified atmosphere at 37° C. and 5% CO2 and the experiments were performed when they reached exponential growth. For the assays, cells were seeded on a 24-well plate and treated or not with Foxy-5 for 72 hours.
(§2) Cells treated with Foxy or with vehicle were collected and intracellular ROS generation was measured by flow cytometry following staining with DCFDA ([…]; Sigma). Acquisition of cells was performed on a FACScalibur flow cytometer (BD) and analysis was carried out using the FlowJo software.
(§3) Leukemia cell lines were treated for 72 h with Foxy-5, at doses of 50 and 100 μM, or vehicle, stained with DCFHA dye, and analyzed by flow cytometry.

K562 cells [1] = test: ROS production by flow cytometry, K562 cells; conditions: 72 h; for ROS production (MFI): K562, 2D culture on HS5 stromal cells; for ROS production (mean fluorescence intensity): K562, monoculture
Experimental: as §1, §2, §3

K562 cells [2] = test: Cell growth assay, K562 cells; conditions: Foxy-5 100 μM, 72 h
Experimental: as §1
Cells treated with Foxy or with vehicle were collected and cell number was evaluated by manual counting in monoculture and by microscopy with Image J software analysis in 2D culture.
Next, we evaluated the proliferation rates since this process is modulated by ROS. We treated the cells with Foxy-5 (100 μM) or with vehicle (DMSO) during 72 hours, and then cell growth was analyzed by counting the cells in monoculture, manually, or by the Image J software analysis of the 2D cultures. […] Similar results were obtained in the 2D culture system using leukemia cells and HS-5 mesenchymal stromal cells.

KG1a cells = test: Cell cycle assay, KG1a cells; conditions: 72 h
Experimental: as §1
Cells treated with Foxy or with vehicle were collected and fixed, at least, 24 hours in 70% ethanol. DNA was stained with a buffer containing iodide propidium (20 μg/mL; Sigma) and RNase A (10 μg/mL; Sigma). Cell fluorescence was detected with a FACSCalibur flow cytometer (BD). The proportions of cells in the cell cycle phases were analyzed by Modifit (Verify Software House Inc), according to DNA distributions.
As we observed a reduction in the leukemic proliferation after Foxy-5 treatment, we also analyzed the cell cycle phases. Leukemia cell lines were treated for 72 hours with Foxy-5, at doses of 50 μM and 100 μM, or vehicle, stained with the Piper buffer containing RNAse and iodeto propidium and then analyzed by flow cytometry.

PI3K and MAPK pathways = test: Western blot of PI3K and MAPK pathway proteins, U937 cells; conditions: U937, Foxy-5 50 μM or 100 μM, 72 h
Experimental: Equal amounts of protein were resolved by sodium dodecyl sulphate-polyacrylamide gel electrophoresis and transferred onto nitrocellulose membranes (Millipore). Detection was carried out with the chemiluminescent substrate using an ECL Plus (GE-Healthcare). Monoclonal antibodies against P70S6K (sc-8418) and polyclonal antibodies against Actin (sc-1616), AKT1/2/3 (sc-8312), BAX (sc-493), BCL-XL (sc-8392), GAPDH (sc-32,233), p-AKT1/2/3 (sc-33,437) and p-P70S6K (sc-7984) were purchased from Santa Cruz Biotechnology. ERK1/2 ([pT185/Y187]; 44-680G) and ERK1/2 (44-654G) from Invitrogen. Quantitative blots were carried out using the UN-SCAN-IT densitometer software.
Based on the above results, the activity of proteins of PI3K and MAPK pathways were then investigated in a western blot. Briefly, U937 and K562 cells were seeded and treated with Foxy-5 (50 μM or 100 μM) or vehicle for 72 hours. Then, equal amounts of protein were used for total extracts followed by electrophoresis on 12% SDS polyacrylamide gels under reducing conditions, transferred to nitrocellulose membranes, blocked with 10% skimmed milk in TBS-0.1% Tween for 1 hour, stained with appropriate primary and secondary antibodies. The membranes were visualized with chemiluminescence using an ECL Plus (GE-Healthcare). Quantitative analyses of the optical intensities of the protein bands were determined with Un-Scan-It Gel 6.1 (Silk Scientific Inc.).

U937 cells = test: Cell differentiation assay with PMA, U937 cells; conditions: U937, PMA (200 nM), 72 hours, morphology by microscopy
Experimental: Cells were subjected to treatment with Foxy-5 or with vehicle, in the presence or absence of PMA (200 nM). After 72 hours, adherent cells were washed with PBS and their morphology was examined using a Zeiss Axi-oskope 2 Plus microscope (Carl Zeiss AG). The program ImageJ was used to assess differentiation.
PMA reagent is a typical inducer of AML cell differentiation through generation of ROS. As U937 leukemia cell lineage corresponds to a model of differentiated monocyte and/or macrophage following treatment with PMA, we examined the effects of Foxy-5 treatment on U937 differentiation-inducing PMA. Following treatment with PMA for 72 hours, cells were examined by microscopy to detect morphology. The majority of cells treated with vehicle and stimulated with PMA differentiated into macrophages and adhered to the plates.

Foxy-5: Formylated hexapeptide fragment of WNT5A: MDGCEL (SEQ. ID. NO. 3) with methionine in position 1 as N-formyl methionine; WNT5A-mimicking compound (For-MDGCEL; listed as Homo sapiens)
ROS production (MFI) (HL60 cells; Foxy-5 50 μM): 28.52 (range 26.37-30.00) MFI
ROS production (MFI) (HL60 cells; Foxy-5 100 μM): 28.50 (range 25.03-30.30) MFI
ROS production (mean fluorescence intensity) (HL60 cells; Foxy-5 50 μM): 17.45 (range 16.40-19.30) MFI
ROS production (mean fluorescence intensity) (HL60 cells; Foxy-5 100 μM): 10.32 (range 10.10-10.80) MFI
ROS production (MFI) (K562 cells [1]; Foxy-5 50 μM): 126.00 (range 125.000-128.20) MFI
ROS production (MFI) (K562 cells [1]; Foxy-5 100 μM): 98.25 (range 98.25-104.00) MFI
ROS production (mean fluorescence intensity) (K562 cells [1]; Foxy-5 50 μM): 83.90 (range 75.80-88.40) MFI
ROS production (mean fluorescence intensity) (K562 cells [1]; Foxy-5 100 μM): 68.75 (range 64.40-72.75) MFI
reduced cell growth compared to vehicle treated cells (K562 cells [2]; K562, 2D culture with HS-5 stromal cells): 1.79 fold decrease
reduced cell growth compared to vehicle treated cells (K562 cells [2]; K562, monoculture): 3.12 fold decrease
cells in G0/G1 cell cycle phase (average) (KG1a cells; co-cultured with HS5 stromal cells, Foxy-5 50 μM): 78.58%
cells in G0/G1 cell cycle phase (average) (KG1a cells; co-cultured with HS5 stromal cells, Foxy-5 100 μM): 76.53%
cells in G0/G1 cell cycle phase (average) (KG1a cells; monoculture, Foxy-5 50 μM): 69.95%
cells in G0/G1 cell cycle phase (average) (KG1a cells; monoculture, Foxy-5 100 μM): 73.79%
phosphorylation level of AKT compared to vehicle-treated cells (PI3K and MAPK pathways): lower phosphorylation levels
phosphorylation level of ERK compared to vehicle-treated cells (PI3K and MAPK pathways): lower phosphorylation levels
protein level of cyclin D1 compared to vehicle-treated cells (PI3K and MAPK pathways): reduced protein level
PMA-mediated differentiation compared with PMA-stimulated cells treated with vehicle (U937 cells): reduced PMA-mediated differentiation
